Seven molecules from patent US20220160686A1, “MACROCYCLIC AZOLOPYRIDINE DERIVATIVES AS EED AND PRC2 MODULATORS” (Fulcrum Therapeutics, Inc., priority 2019, published 2022) can be followed below.

Assay [1] addresses EZH2/PRC2 complex (Homo sapiens, UniProt O75530). Description: Histone methyltransferase assay (radioisotope-based HotSpot). Type of assay: biochemical. The following applies: EZH2/PRC2 complex 10 nM, core histone substrate 0.05 mg/ml, 3H-SAM 1 μM; read-out: IC50, inhibitory effects on the HMT enzyme. On the procedure: Effect of compounds of the present disclosure on EZH2/PRC2 complex methyltransferase functional activity was measured using the radioisotope-based HotSpot assay described by Horiuchi, K. Y., et al. Assay Drug Dev Technol. 11(4):227-36 (2013). Briefly, compounds were prepared in a 10-point 3-fold serial dilution in DMSO from a 10 mM stock in ECHO qualified plate using Assist Plus (Integra Biosciences) liquid handler. […] Nanoliter quantities of each compound's concentration series were transferred into the enzyme/substrate mix using (Echo 550, LabCyte Inc. Sunnyvale, Calif.) acoustic dispenser and pre-incubated for 20 min at room temperature. The methylation reaction was initiated by the addition of 1 μl of 5 μM S-Adenosyl-L-[methyl-^3H]methionine (^3H-SAM) and incubated at 30° C. for 1 h. The final concentration of the EZH2/PRC2 complex, core histone substrate and ^3H-SAM were 10 nM, 0.05 mg/ml, and 1 μM respectively. The % activity of test samples were calculated with reference to positive (no compound) and negative (no EZH2/PRC2) controls on the plate using Excel (Microsoft). The resulting values were exported to Prism (GraphPad software) to generate concentration response curves and IC50 values using the four-parameter logistic equation.

The target of assay [2] is T1, biotinylated AVI-tagged EED (76-441) (Homo sapiens, UniProt O75530).
T1 construct: GST (N, cleaved yes); made in house; host or cells: E. coli BL21(DE3), co-expressed with pGro7
Description: EED binding SPR assay. The following applies: 1:1 binding model; read-out: KD, equilibrium dissociation constant as measured by surface plasmon resonance (SPR). Put shortly:
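Biotinylated AVI-EED(76-441) from E. coli was captured on Biotin CAPture chips (2200–2400 RU) in 10 mM HEPES pH 7.4, 150 mM NaCl, 0.05% Tween 20 and 2% DMSO. Compounds were run at 7 concentrations (3-fold dilutions) with 90 s association and 180 s dissociation, chip at 25 °C. Data were fitted to a 1:1 binding model.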
(Surface plasmon resonance follows binding to a sensor surface in real time, without labels.)

T1 sequence (O75530 76-441 limits assumed): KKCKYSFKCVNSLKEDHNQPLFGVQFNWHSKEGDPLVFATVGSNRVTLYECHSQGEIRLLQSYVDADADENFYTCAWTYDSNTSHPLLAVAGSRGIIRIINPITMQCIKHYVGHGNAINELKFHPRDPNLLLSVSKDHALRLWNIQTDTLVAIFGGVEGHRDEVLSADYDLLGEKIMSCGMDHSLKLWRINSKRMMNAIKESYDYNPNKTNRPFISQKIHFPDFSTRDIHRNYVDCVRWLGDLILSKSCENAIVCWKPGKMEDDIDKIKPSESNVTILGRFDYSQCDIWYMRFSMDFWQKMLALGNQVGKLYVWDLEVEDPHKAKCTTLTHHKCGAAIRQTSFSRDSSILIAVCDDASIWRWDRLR
Sequence of EZH2/PRC2 complex (O75530 whole entry): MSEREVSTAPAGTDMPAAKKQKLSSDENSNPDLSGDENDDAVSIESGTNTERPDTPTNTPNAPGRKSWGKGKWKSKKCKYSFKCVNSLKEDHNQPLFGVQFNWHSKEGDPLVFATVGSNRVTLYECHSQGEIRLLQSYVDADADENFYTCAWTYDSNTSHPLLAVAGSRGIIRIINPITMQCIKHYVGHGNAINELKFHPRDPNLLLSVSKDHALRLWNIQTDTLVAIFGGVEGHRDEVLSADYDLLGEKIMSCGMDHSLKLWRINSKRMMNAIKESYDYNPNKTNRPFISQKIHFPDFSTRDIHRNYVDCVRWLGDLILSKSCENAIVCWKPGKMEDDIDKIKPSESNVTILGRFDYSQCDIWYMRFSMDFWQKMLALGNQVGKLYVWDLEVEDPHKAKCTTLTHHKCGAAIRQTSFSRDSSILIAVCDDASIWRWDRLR
Sequence of EZH2/PRC2 complex (Q15910 whole entry partner): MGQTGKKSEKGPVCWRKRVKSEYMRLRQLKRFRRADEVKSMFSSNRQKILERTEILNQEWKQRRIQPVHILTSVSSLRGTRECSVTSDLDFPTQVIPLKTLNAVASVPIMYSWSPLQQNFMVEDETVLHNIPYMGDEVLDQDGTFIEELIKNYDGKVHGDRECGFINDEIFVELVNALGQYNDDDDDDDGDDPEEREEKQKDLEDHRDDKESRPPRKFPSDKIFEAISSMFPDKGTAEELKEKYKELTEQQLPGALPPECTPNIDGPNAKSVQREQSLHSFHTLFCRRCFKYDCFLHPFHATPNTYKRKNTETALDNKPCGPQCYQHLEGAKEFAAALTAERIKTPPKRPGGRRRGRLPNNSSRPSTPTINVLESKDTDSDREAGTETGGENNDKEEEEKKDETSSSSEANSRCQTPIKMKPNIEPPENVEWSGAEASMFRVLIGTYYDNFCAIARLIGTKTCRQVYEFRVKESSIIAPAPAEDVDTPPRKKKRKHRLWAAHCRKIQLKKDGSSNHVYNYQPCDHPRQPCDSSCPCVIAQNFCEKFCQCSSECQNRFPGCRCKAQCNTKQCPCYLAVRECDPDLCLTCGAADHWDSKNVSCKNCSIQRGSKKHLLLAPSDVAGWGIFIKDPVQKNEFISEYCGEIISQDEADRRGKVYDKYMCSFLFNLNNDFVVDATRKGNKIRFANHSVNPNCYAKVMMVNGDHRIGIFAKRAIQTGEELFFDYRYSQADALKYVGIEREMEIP
Sequence of EZH2/PRC2 complex (Q15022 whole entry partner): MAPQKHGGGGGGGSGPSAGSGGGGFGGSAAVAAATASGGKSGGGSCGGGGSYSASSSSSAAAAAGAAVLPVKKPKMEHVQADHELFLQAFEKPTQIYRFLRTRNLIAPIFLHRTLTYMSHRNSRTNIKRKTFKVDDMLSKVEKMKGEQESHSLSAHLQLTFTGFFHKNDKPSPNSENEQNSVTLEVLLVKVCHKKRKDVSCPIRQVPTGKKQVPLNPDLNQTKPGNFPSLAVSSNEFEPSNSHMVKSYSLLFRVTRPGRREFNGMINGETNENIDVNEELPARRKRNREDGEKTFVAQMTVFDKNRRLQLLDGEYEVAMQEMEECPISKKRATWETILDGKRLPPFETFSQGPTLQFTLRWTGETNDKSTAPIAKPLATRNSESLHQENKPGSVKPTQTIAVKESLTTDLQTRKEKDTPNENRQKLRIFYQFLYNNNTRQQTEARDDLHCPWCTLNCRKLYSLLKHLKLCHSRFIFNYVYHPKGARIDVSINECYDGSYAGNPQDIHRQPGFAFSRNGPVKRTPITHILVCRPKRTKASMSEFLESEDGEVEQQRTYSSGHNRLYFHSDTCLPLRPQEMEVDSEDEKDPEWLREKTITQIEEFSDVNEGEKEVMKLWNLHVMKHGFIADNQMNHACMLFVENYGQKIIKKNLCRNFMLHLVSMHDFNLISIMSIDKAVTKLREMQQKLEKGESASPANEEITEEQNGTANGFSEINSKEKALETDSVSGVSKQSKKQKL

For orientation: IC50 means the point on the concentration scale where inhibition reaches its midpoint. What is called Kd is the free concentration of one partner at which half of the binding sites on the other are occupied at equilibrium, for simple one-to-one binding. `Cc1ncoc1-c1cc2c(n3cnnc13)NCc1c(F)ccc3c1[C@@H](CO3)CO2` [Compound 189, (S)-12-fluoro-4-(4-methyloxazol-5-yl)-7a,8,13,14-tetrahydro-7H-[1,2,4]triazolo[4′,3′:1,6]pyrido[3,2-b]benzofuro[4,3-fg][1,4]oxazonine]: the IC50 in assay [1] is < 25 nM. Moreover, in assay [2], the dissociation constant Kd is < 2.5 nM.
On the same counts, the results for `Cn1nccc1-c1cc2c(n3cnnc13)NCc1c(F)ccc3c1C(CO3)CO2` (centres unmarked) [Example 17] are < 25 nM and < 2.5 nM.
As to `COc1ncc(-c2cc3c(n4cnnc24)NCc2c(F)ccc4c2[C@H](CO4)CO3)cn1` [Example 30], the IC50 in assay [1] was < 25 nM. In assay [2], the Kd was < 2.5 nM.
For `CS(=O)(=O)c1ccc(-c2cc3c(n4cnnc24)NCc2c(F)ccc4c2C(CO4)CO3)cc1` (centres unmarked) [Example 36], the IC50 in assay [1] was < 25 nM. Further, in assay [2], the Kd is < 2.5 nM.
Take `CN(CC(F)(F)F)C(=O)c1cc2c(n3cnnc13)NCc1c(F)ccc3c1C(CO3)CO2` (centres unmarked) [Example 38]: the IC50 in assay [1] is < 25 nM. Moreover, the Kd in assay [2] was in the range of 2.5 to 5 nM.
The matching figures for `Cc1cc(C#N)ccc1-c1cc2c(n3cnnc13)NCc1c(F)ccc3c1[C@H](CO3)CO2` [Example 49]: < 25 nM and < 2.5 nM.
The matching figures for `Cn1nc(C(F)(F)F)cc1-c1cc2c(n3cnnc13)NCc1c(F)ccc3c1[C@H](CO3)CO2` [Example 115]: < 25 nM and < 2.5 nM.
